The values that follow come from ChEMBL document CHEMBL2385043, “Recent advances in malaria drug discovery” (Bioorg Med Chem Lett, 2013).

A short description of data set [1]: Half life in human. Format: ADME, organism-based. As to conditions: in vivo.
Data set [2] can be described thus: Selectivity ratio of IC50 for human cytochrome b-c1 complex to IC50 for Plasmodium falciparum cytochrome b-c1 complex.
The nature of data set [3]: Inhibition of Plasmodium falciparum cytochrome b-c1 complex.
The test system of data set [4] is Plasmodium falciparum. Briefly: Antiplasmodial activity against sexual blood stage of Plasmodium falciparum. The format is functional, organism-based.
For data set [5], the system named is Plasmodium falciparum. In words: Antiplasmodial activity against asexual blood stage of Plasmodium falciparum. Format: functional, organism-based.
Another data set has as its system Plasmodium yoelii. Briefly: Antiplasmodial activity against liver stage of Plasmodium yoelii. Format: functional, organism-based.
Another data set deals with Plasmodium vinckei. In words: Antimalarial activity against Plasmodium vinckei infected in po dosed Swiss mouse. The format is functional.
Data set [6] is described as follows: Oral bioavailability in rat. The note with it: in vivo. The format is ADME, organism-based.
The subject of data set [7] is Plasmodium falciparum. Briefly: Antimalarial activity against multidrug-resistant Plasmodium falciparum W2 infected in ip dosed mouse assessed as reduction in parasitemia administered on day 64 post-infection. The format is functional. As to conditions: 1536 h.
Data set [8] relates to Plasmodium falciparum. Briefly: Antiplasmodial activity against multidrug-resistant Plasmodium falciparum W2 infected in human erythrocytes after 72 hrs by ELISA. Format: functional, organism-based. The note with it: W2, 72 h. (In general: ELISA stands for enzyme-linked immunosorbent assay.)
A further data set has as its system Plasmodium. In words: Antimalarial activity against Plasmodium infected in mouse. Format: functional.
For data set [9], the system named is Plasmodium falciparum. Briefly: Antiplasmodial activity against chloroquine-resistant Plasmodium falciparum K1. The format is functional, organism-based.
For data set [10], the system named is Plasmodium falciparum. Briefly: Antiplasmodial activity against drug-sensitive Plasmodium falciparum 3D7. Format: functional, organism-based.
For the next data set, the target named is Lysine--tRNA ligase (Homo sapiens, UniProt Q15046). In words: Inhibition of human recombinant cytoplasmic lysyl-tRNA synthetase.
Chain of Lysine--tRNA ligase (Q15046 whole entry): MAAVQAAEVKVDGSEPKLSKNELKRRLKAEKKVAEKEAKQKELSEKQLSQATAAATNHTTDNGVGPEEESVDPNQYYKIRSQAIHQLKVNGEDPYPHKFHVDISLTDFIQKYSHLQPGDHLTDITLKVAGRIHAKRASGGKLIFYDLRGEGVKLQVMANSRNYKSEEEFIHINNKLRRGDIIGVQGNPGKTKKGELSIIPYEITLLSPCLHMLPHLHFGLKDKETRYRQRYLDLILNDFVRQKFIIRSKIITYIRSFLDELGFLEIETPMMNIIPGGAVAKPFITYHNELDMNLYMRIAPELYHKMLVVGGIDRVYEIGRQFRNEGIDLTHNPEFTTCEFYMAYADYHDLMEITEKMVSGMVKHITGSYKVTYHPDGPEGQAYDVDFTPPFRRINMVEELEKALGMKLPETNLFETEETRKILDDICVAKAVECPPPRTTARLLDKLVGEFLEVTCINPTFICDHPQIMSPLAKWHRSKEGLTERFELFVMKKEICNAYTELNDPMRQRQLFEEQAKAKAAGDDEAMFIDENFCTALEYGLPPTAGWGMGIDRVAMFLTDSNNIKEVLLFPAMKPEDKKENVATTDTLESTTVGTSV
Data set [11] concerns Plasmodium falciparum. Briefly: Antiplasmodial activity against liver stage of drug-sensitive Plasmodium falciparum 3D7. The note with it: 3D7, Liver. Format: functional, organism-based.
For data set [12], the system named is Plasmodium falciparum. In words: Antiplasmodial activity against liver stage of drug-sensitive Plasmodium falciparum D10. The format is functional, organism-based.
Data set [13] in a line: Half life in po dosed Sprague-Dawley rat by LC/MS/MS analysis. Format: ADME, organism-based. The note with it: in vivo.
The nature of data set [14]: Oral bioavailability in Sprague-Dawley rat. Format: ADME, organism-based. As to conditions: in vivo.
For data set [15], the system named is Plasmodium falciparum. Briefly: Antimalarial activity against Plasmodium falciparum VS/1 expressing DHFR quadruple mutation infected in po dosed SCID mouse assessed as reduction in parasitemia administered 3 days post infection measured on day 6. Format: functional. The note with it: VS/1, po.
Data set [16] concerns Plasmodium falciparum. In words: Antiplasmodial activity against Plasmodium falciparum VS/1 expressing DHFR quadruple mutation by [3H]-hypoxanthine incorporation assay. The format is functional, organism-based.
Data set [17] has as its system Plasmodium falciparum. Briefly: Antiplasmodial activity against wild type Plasmodium falciparum TM4 by [3H]-hypoxanthine incorporation assay. As to conditions: TM4, 3 h.
In data set [18] the test system is Plasmodium falciparum. Briefly: Antiplasmodial activity against chloroquine and antifolate-sensitive Plasmodium falciparum TM4 after 24 hrs by [3H]-hypoxanthine incorporation assay. The format is functional, organism-based.
The test system of data set [19] is Plasmodium falciparum. In words: Antimalarial activity against Plasmodium falciparum infected in mouse. The format is functional.
Data set [20] concerns Plasmodium falciparum. In words: Antiplasmodial activity against drug-sensitive Plasmodium falciparum 3D7 after 72 hrs by SYBR Green staining-based fluorescence assay. Format: functional, organism-based. The note with it: 3D7, 72 h.
The test system of data set [21] is Plasmodium falciparum. Briefly: Antiplasmodial activity against multidrug-resistant Plasmodium falciparum Dd2 after 72 hrs by SYBR Green staining-based fluorescence assay. Format: functional, organism-based. The note with it: Dd2, 72 h.
For data set [22], the system named is Plasmodium falciparum. In words: Antiplasmodial activity against blood stage of Plasmodium falciparum. The format is functional, organism-based.
In data set [23] the test system is Plasmodium berghei. Briefly: Antimalarial activity against Plasmodium berghei infected in po dosed mouse. The format is functional.
The nature of data set [24]: Half life in po dosed rat. The note with it: in vivo.
Data set [25] relates to Plasmodium berghei. Briefly: Antimalarial activity against Plasmodium berghei ANKA infected in mouse assessed as reduction in parasitemia at 40 mg/kg, ip relative to control. Format: functional. As to conditions: route intraperitoneal.
A short description of data set [26]: Oral bioavailability in mouse. Format: ADME, organism-based. As to conditions: in vivo.
Data set [27] concerns Plasmodium falciparum. In words: Antiplasmodial activity against multidrug-resistant Plasmodium falciparum W2 infected in human erythrocytes. Format: functional, organism-based.
A short description of data set [28]: Terminal half life in human. Format: ADME, organism-based. The note with it: in vivo, read-out: beta t1/2 (converted).

For the molecule `CO[C@H]1O[C@@H]2O[C@@]3(C)CC[C@H]4[C@H](C)CC[C@@H]([C@H]1C)[C@@]24OO3`, the half-life in data set [1] is 1 h.

With `CCCCCCCCCCOc1cc2c(O)c(C(=O)OCC)cnc2cc1OCC` [DECOQUINATE], the Ratio IC50 in [2] was more than 5000. Besides, the midpoint of inhibition in data set [3], the IC50, lay at 2 nM. In addition, the EC50 in the data set with Plasmodium falciparum [4] came out at 36 nM; in the data set with Plasmodium falciparum [5], 10 nM; in the data set with Plasmodium yoelii it was 2.6 nM.

In the case of `C/C(=C1\CCOC(=O)S1)N(C=O)CCCCCCCCCCCCN(C=O)/C(C)=C1/CCOC(=O)S1`, the median effective dose (ED50) in the data set with Plasmodium vinckei is 5 mg/kg/day. In addition, the bioavailability in [6] was 15%.

Take `Clc1ccc2c(N3CCN(CCCN4CCN(c5ccnc6cc(Cl)ccc56)CC4)CC3)ccnc2c1` [PIPERAQUINE]: in the data set on Plasmodium falciparum [7], the 50% effective dose (ED50) came to 4.5 mg/kg. This molecule showed a half-life in data set [1] of 192 h. For the same molecule, the EC50 in the data set on Plasmodium falciparum [8] was 12.5 nM.

The molecule `CN1CCN(C2CCN(C(=O)CC3CCC4(CC3)OOC3(OO4)C4CC5CC(C4)CC3C5)CC2)CC1` (centres undefined) showed an ED50 in the data set on Plasmodium of 1.8 mg/kg/day. The IC50 is 1.9 nM in the data set with Plasmodium falciparum [9] and 4.9 nM with Plasmodium falciparum [10].

As to `C[C@H]1CCC[C@H](C[C@H]2Cc3cc(O)cc(O)c3C(=O)O2)O1` [CLADOSPORIN], the IC50 on Lysine--tRNA ligase was more than 20000 nM. The EC50 in the data set on Plasmodium falciparum [11] came to 45 nM; in the data set on Plasmodium falciparum [12] it was 90 nM.

As for `CCc1nc(N)nc(N)c1OCCCOc1ccccc1CCC(=O)O.Cl`, in data set [13], the half-life is 7.3 h. The molecule also showed a bioavailability in data set [14] of 46%. Moreover, the ED50 with Plasmodium falciparum [15] amounted to 0.3 mg/kg/day. For the same molecule, the results for the IC50 with Plasmodium falciparum [16] and in the data set on Plasmodium falciparum [17] were 56 nM and 4.6 nM, respectively.

Molecule `CC1(C)N=C(N)N=C(N)N1c1ccc(Cl)cc1` [CYCLOGUANIL] showed an EC50 in the data set with Plasmodium falciparum [18] of 38 nM.

`CCOc1ccc(F)cc1C1(O)C(N)=Nc2ccc(Cl)cc21` (centres undefined) had an ED99 in the data set on Plasmodium falciparum [19] of 100 mg/kg/day. In addition, the EC50 with Plasmodium falciparum [20] came to 28 nM; in the data set with Plasmodium falciparum [21], 65 nM.

Turning to `C[C@H](NC(=O)[C@H](Cc1ccccc1)C[C@@H](O)[C@H](Cc1ccccc1)NC(=O)OC(C)(C)C)C(=O)N[C@@H]1C(=O)N(C)c2ccccc2-c2ccccc21`, the EC50 worked out at 17 nM with Plasmodium falciparum [22] and 7.8 nM with Plasmodium yoelii.

For `C[C@H]1Cc2c([nH]c3cc(Cl)c(F)cc23)[C@@]2(N1)C(=O)Nc1ccc(Cl)cc12` [CIPARGAMIN], it took a dose of 1.2 mg/kg to reach the 50% effect level with Plasmodium berghei [23] (ED50). This molecule also had a half-life in data set [24] of 27 h. In [6], this molecule had a bioavailability of 100%. Further, the EC50 in the data set with Plasmodium falciparum [10] was 0.7 nM.

`COc1cc2c(NC3CCN(C)CC3)nc(N3CCCN(C)CC3)nc2cc1OCc1ccccc1`: in the data set with Plasmodium berghei [25], the “fold change (FC)” value was 18. Besides, the EC50 in the data set on Plasmodium falciparum [10] turned out to be 100 nM.

In the data set with Plasmodium falciparum [10], `CCN(CC)Cc1cc(Nc2ccnc3cc(Cl)ccc23)ccc1O` came in with an EC50 of 11 nM.

For `CN1CCN(C2CCN(C(=O)CC3CCC4(CC3)OOC3(OO4)C4CC5CC(C4)CC3C5)CC2)CC1.Cc1ccc(S(=O)(=O)O)cc1` (centres undefined), the figures for the bioavailability in [6] and in data set [26] were 38% and 42%, respectively.

`CCCCN(CCCC)CC(O)c1cc(Cl)cc2c1-c1ccc(Cl)cc1/C2=C/c1ccc(Cl)cc1` (centres undefined) [LUMEFANTRINE] came in with an EC50 in the data set on Plasmodium falciparum [27] of 0.45 nM. Besides, the half-life in data set [28] is 72 h.

Broadly, the IC50 is the concentration that inhibits the measured activity by half. Usually EC50 stands for the concentration needed to bring the measured effect to its halfway point. Low values mean higher potency in that assay, high ones lower potency in that assay. The term ED50 denotes the midpoint of the dose-response relation. Usually bioavailability stands for dose-corrected exposure relative to a reference, in per cent. Read a low bioavailability as poor availability.
